Assay results taken from the supplement of paper PMC8882468.

How the values were obtained:
Test in all cases: CTG-3D luminescence at 96 h relative to day-0 seeding control (ratio to day 0); higher = more growth / less cytotoxicity
[1] = system: HCI-010 (organoid from a breast cancer xenograft)
Protocol: (§1)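 PDX-derived breast cancer organoids (PDxO) in 384-well Matrigel plates, 8-point dose (0.000000625-100 uM), 96 h at 37 C; CellTiter-Glo 3D luminescence normalised to the day-0 seeding control (mean of 4 technical replicates over mean of 4 day-0 wells).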

[2] = system: HCI-002 (organoid from a triple-negative breast cancer xenograft)
Protocol: as §1

[3] = system: MDA-MB-231
Protocol: as §1

[4] = system: HCI-017.E2 (organoid from an ER-positive breast cancer xenograft)
Protocol: as §1

O=c1[nH]cc(F)c(=O)[nH]1 [5-fluorouracil]
CTG-3D luminescence at 96 h
Conditions	12.5 pM	0.00025 µM	0.005 µM	0.1 µM	1 µM	10 µM	100 µM	625 fM
[1], days in culture: 52	2.25	2.58	2.49	2.66	2.42	2.48	1.51	2.55
[1], days in culture: 65	1.67	1.68	1.87	1.73	1.83	1.73	1.18	1.66
[1], days in culture: 103	3.85	3.56	3.46	3.56	3.17	2.42	2.1	3.28
[2], days in culture: 62	2.85	2.76	3.08	2.64	2.28	2.07	1.07	3.16
[2], days in culture: 82	2.94	2.81	2.15	2.78	2.66	1.66	1.08	3.04
[2], days in culture: 91	4.34	3.73	3.78	4.16	2.98	3.14	1.6	4.03
[2], days in culture: 191	2.53	2.58	2.45	2.4	2.34	1.91	1.22	2.43
[2], days in culture: 209	2.41	2.39	2.11	2.23	2.05	1.43	1.02	2.45
[2], days in culture: 227	6.3	6.54	6.31	7.6	5.98	3.45	1.93	6.49
[4], days in culture: 85	2.76	2.47	2.46	2.16	2.41	1.85	1.6	2.21

CTG-3D luminescence at 96 h
Conditions	12.5 pM	0.00025 µM	0.005 µM	0.1 µM	1 µM	10 µM	100 µM	625 fM
[3]	4.33	4.19	4.49	4.31	4.4	4.03	3.35	4.34
[4]	1.94	2.02	1.96	2.04	2.05	1.88	1.64	2.219
